Reference: paper PMC11266932, “Enhanced absorption of prenylated cinnamic acid derivatives from Brazilian green propolis by turmeric in humans and rats” (Food Science & Nutrition, 2024)
Like-named read-outs stand apart in the source and are kept apart here. Values belong to the molecule of their own block, whether it stands above or below them.

Key:
[1] = tested on: MDCK II cell monolayer; assay: Bidirectional transport assay across parent MDCK II cell monolayer; type: in vitro ADME, canine; settings: 10 μM; for Papp MDCK II A to B / Papp MDCK II B to A: 120 min, mean ± SE, n = 2
Method: (§1) The Madin‐Darby canine kidney (MDCK II) cell line and MDCK II cells overexpressing multidrug resistance 1 (MDR1) or breast cancer resistance protein (BCRP) were purchased from the Netherlands Cancer Institute (Amsterdam, Netherlands) and SOLVO Biotechnology (Szeged, Hungary), respectively. The cell lines were routinely cultured in Dulbecco's modified Eagle's medium (DMEM) containing 10% fetal bovine serum and 1% penicillin/streptomycin at 37°C in 5% CO2. All cells were seeded in a feeder tray at a density of 3–6 × 10^4 cells/well and grown for 3–4 days. On the day of the transport study, cell monolayers were washed with Hanks' balanced salt solution (HBSS) buffer containing 0.1% BSA (pH 7.4) and incubated at 37°C for 20 min. Artepillin C and drupanin dissolved in DMSO (10 mM) were added to the transport buffer (HBSS containing 10 mM HEPES, 0.2% glucose, 0.1% BSA, pH 7.4) to a final concentration of 10 μM and then loaded into the apical or basolateral chamber. After 120 min of incubation, 150 μL of the aliquots were collected from the donor and receiver chambers and mixed with an equal volume of 50% methanol. After centrifugation at 3000 rpm for 10 min at 4°C, the supernatants were filtered and subjected to LC–MS/MS analysis.
(§2) The in vitro samples were analyzed using HPLC (LC‐20A, Shimadzu, Kyoto, Japan) with a reversed‐phase column (Inertsil ODS‐3, 2.1 × 33 mm, ID. 3 μm, GL Sciences, Tokyo, Japan) held at 40°C. The mobile solvents used were water with 10 mM ammonium acetate (pH 4.0, A) and methanol (B) pumped at a flow rate of 0.4 mL/min. The following gradient was employed: 10%–90% B (0–0.5 min), 90% B (0.5–2.5 min), and 10% B (2.5–4 min). The eluent was monitored using a triple quadrupole mass spectrometer (API 4000, AB Sciex, Framingham, MA, USA) incorporating an electrospray ion source (ESI) operating in the multiple reaction monitoring mode. The ESI source was operated in negative ionization mode at 600°C with a spray voltage of −4.5 kV. The curtain gas (nitrogen), collision gas (nitrogen), nebulizer gas (whole air), and drying gas (whole air) were set at 40, 5, 50, and 70 psi, respectively. […] Artepillin C and drupanin were diluted in 50% methanol to concentrations of 1.6, 3.2, 8, 40, 200, 1000, and 2000 nM and were used as external standards. Sulfaphenazole (0.2 μM) was used as an internal standard.
(§3) The apparent permeability coefficients (Papp) for both directions, from the apical side to the basolateral side (A to B) and from the basolateral side to the apical side (B to A) in the cell monolayer, were calculated using the following equation: (1) Papp=dQ/dt/A×C0 where dQ/dt is the permeation rate (nmol/s), A is the membrane area (cm^2), and C0 is the initial concentration of the compound in the donor compartment (nM). The efflux ratios (ER) in the B‐to‐A and A‐to‐B directions were determined using the following equation: (2) ER=PappBtoA/PappAtoB

[2] = molecular target: T1, multidrug resistance 1 (MDR1), P‐gp (Homo sapiens, UniProt P08183); assay: Bidirectional transport assay across MDCK II-MDR1 cell monolayer; type: in vitro ADME; settings: for Net flux ratio: ER of MDCK II‐MDR1 divided by ER of parent MDCK II, >2 = transporter-mediated efflux
T1 construct: host or cells: MDCK II (Madin-Darby canine kidney) cells overexpressing MDR1
Method: as §1, §2, §3
(§4) Net flux ratios were calculated by dividing the ER obtained from MDCK II‐MDR1 (or BCRP) cells by that obtained from the parent MDCK II cells.

[3] = molecular target: T2, breast cancer resistance protein (BCRP) (Homo sapiens, UniProt Q9UNQ0); assay: Bidirectional transport assay across MDCK II-BCRP cell monolayer; type: in vitro ADME; settings: for Net flux ratio: ER of MDCK II‐BCRP divided by ER of parent MDCK II, >2 = transporter-mediated efflux; for substrate of BCRP (in words): bidirectional transport assay, net flux ratio criterion
T2 construct: host or cells: MDCK II (Madin-Darby canine kidney) cells overexpressing BCRP
T2 sequence (Q9UNQ0 1-655): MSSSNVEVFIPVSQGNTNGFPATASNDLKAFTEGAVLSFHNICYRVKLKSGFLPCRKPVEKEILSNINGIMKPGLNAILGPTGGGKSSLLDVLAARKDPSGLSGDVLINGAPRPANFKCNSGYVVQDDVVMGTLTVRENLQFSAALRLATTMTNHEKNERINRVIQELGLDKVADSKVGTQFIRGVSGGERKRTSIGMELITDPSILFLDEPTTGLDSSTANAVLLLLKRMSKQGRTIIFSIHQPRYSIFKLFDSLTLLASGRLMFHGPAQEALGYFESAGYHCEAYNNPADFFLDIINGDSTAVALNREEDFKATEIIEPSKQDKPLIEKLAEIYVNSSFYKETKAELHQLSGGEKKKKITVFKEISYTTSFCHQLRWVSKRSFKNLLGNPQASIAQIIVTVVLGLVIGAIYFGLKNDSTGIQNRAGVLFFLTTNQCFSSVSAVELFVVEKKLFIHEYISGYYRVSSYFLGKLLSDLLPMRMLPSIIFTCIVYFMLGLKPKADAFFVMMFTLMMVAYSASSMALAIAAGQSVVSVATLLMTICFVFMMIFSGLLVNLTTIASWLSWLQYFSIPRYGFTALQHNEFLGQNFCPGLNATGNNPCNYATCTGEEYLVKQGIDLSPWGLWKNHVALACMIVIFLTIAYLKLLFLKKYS
Method: as §1, §2, §3, §4

[4] = Bidirectional transport assay across parent MDCK II cell monolayer; type: in vitro ADME, canine; settings: dog; for efflux ratio at 120 min, 10 μM: MDCK, pH 7.4, 10 μM, Papp B to A / Papp A to B, read-out: Flux ratio (MDCK II) (efflux ratio, ER); for Papp A→B at 120 min, 10 μM / Papp B→A at 120 min, 10 μM: mean ± SE, n = 2
Method: as §1, §2, §3

[5] = molecular target: T3, MDR1 (P-gp) (Homo sapiens, UniProt P08183); assay: Bidirectional transport assay across MDCK II-MDR1 cell monolayer; type: in vitro ADME; settings: dog, MDCK-MDR1, pH 7.4
T3 construct: host or cells: MDCK II (Madin-Darby canine kidney) cells overexpressing MDR1
Method: as §1, §2, §3, §4

[6] = molecular target: T4, BCRP (Homo sapiens, UniProt Q9UNQ0); assay: Bidirectional transport assay across MDCK II-BCRP cell monolayer; type: in vitro ADME; settings: dog, pH 7.4
T4 construct: host or cells: MDCK II (Madin-Darby canine kidney) cells overexpressing BCRP
T4 sequence (Q9UNQ0 1-655): T2 sequence (Q9UNQ0 1-655)
Method: as §1, §2, §3, §4

[7] = parent cells of the BCRP experiment (Table 3)
[8] = parent cells of the MDR1 experiment (Table 2)
[9] = 10 μM, 120 min, mean ± SE, n = 2
[10] = 10 μM, Papp B to A / Papp A to B
[11] = MDCK-MDR1, pH 7.4, parent cells of the MDR1 experiment (Table 2)
[12] = pH 7.4, parent cells of the BCRP experiment (Table 3)

SMILES: CC(C)=CCc1cc(/C=C/C(=O)O)cc(CC=C(C)C)c1O [artepillin C]
Papp MDCK II A to B [1, 7]: 13.0 ± 0.8 10^−6 cm/s
Papp MDCK II B to A [1, 7]: 10.8 ± 0.1 10^−6 cm/s
Papp MDCK II A to B [1, 8]: 14.0 ± 0.7 10^−6 cm/s
Papp MDCK II B to A [1, 8]: 11.2 ± 1.2 10^−6 cm/s
Flux ratio (MDCK II) (efflux ratio, ER) ([1]; Papp B to A / Papp A to B, Table 2 experiment): 0.8
Papp MDCK II‐MDR1 A to B [2, 9]: 13.3 ± 0.7 10^−6 cm/s
Papp MDCK II‐MDR1 B to A [2, 9]: 11.4 ± 0.8 10^−6 cm/s
Flux ratio (MDCK II‐MDR1) (efflux ratio, ER) [2, 10]: 0.9
Net flux ratio [2]: 1.1
Papp MDCK II‐BCRP A to B [3, 9]: 9.7 ± 0.2 10^−6 cm/s
Papp MDCK II‐BCRP B to A [3, 9]: 16.0 ± 0.01 10^−6 cm/s
Flux ratio (MDCK II‐BCRP) (efflux ratio, ER) [3, 10]: 1.6
Net flux ratio [3]: 2.0
substrate of BCRP (in words) [3]: substrates

efflux ratio at 120 min, 10 μM ([4]; Table 2 experiment): 0.9
efflux ratio at 120 min, 10 μM ([4]; Table 3 experiment): 0.8
Papp A→B at 120 min, 10 μM [4, 11]: 11.1 ± 0.2 ×10⁻⁶ cm/s
Papp B→A at 120 min, 10 μM [4, 11]: 9.9 ± 0.2 ×10⁻⁶ cm/s
Papp A→B at 120 min, 10 μM [4, 12]: 11.6 ± 0.1 ×10⁻⁶ cm/s
Papp B→A at 120 min, 10 μM [4, 12]: 8.9 ± 0.4 ×10⁻⁶ cm/s
Papp A→B at 120 min, 10 μM [5, 9]: 13.3 ± 1.4 ×10⁻⁶ cm/s
Papp B→A at 120 min, 10 μM [5, 9]: 11.2 ± 0.2 ×10⁻⁶ cm/s
efflux ratio at 120 min, 10 μM ([5]; read-out: Flux ratio (MDCK II‐MDR1) (efflux ratio, ER)): 0.8
Net flux ratio [2]: 0.9
Papp A→B at 120 min, 10 μM [6, 9]: 1.3 ± 0.1 ×10⁻⁶ cm/s
Papp B→A at 120 min, 10 μM [6, 9]: 20.9 ± 0.1 ×10⁻⁶ cm/s
efflux ratio at 120 min, 10 μM ([6]; read-out: Flux ratio (MDCK II‐BCRP) (efflux ratio, ER)): 15.7
Net flux ratio [3]: 20.4
substrate of BCRP (in words) [3]: substrates
SMILES: CC(C)=CCc1cc(/C=C/C(=O)O)ccc1O [drupanin]
